Where a name gives a salt, the structure may show the parent alone.
Key:
[1] = system: rhIFNγ stimulated STAT-3 phosphorylation in the A549 human epithelial cell line; assay: A549 Cell Assay: Inhibition of pSTAT3; assay type: cell-based; conditions: Homo sapiens; A549 cells
In short: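 Percent inhibition of STAT3 Tyr705 phosphorylation was measured by MSD immunoassay of cell lysates. A549 cells were given compound for 1 h at 37° C (final 0.3 nM to 10 μM, 0.1% DMSO, in 0.2% BSA DMEM), followed by 30 min of rhIFNγ stimulation at 20 ng/mL final. Unstimulated DMSO wells served as background.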

[2] = system: rhIL-2 stimulated STAT5 phosphorylation in isolated human T cells; assay: Human T Cell Assay: Inhibition of pSTAT5; assay type: cell-based
Experimental: Human T Cell Assay: Inhibition of pSTAT5
An assay measuring the efficacy of JAK inhibitors on the functional response of recombinant human interleukin-2 (rhIL-2) stimulated STAT5 phosphorylation in isolated human T cells.
Human whole blood from individual donors was collected from the phlebotomy unit on-site. Peripheral venous blood (30-60 mL) from healthy volunteers of either sex was used as the source of T cells. T cell isolation from venous whole blood is routinely performed in a class II microbiological safety cabinet. Each sample was collected into between 3 and 6 10 mL Sodium Heparin Vacutainer tubes (BD #367874). The blood was poured into sterile 50 mL conicals (Corning #430828) and incubated with the T cell Rosette Sep Cocktail (Stemcell Technologies #15061) at 50 μL/mL antibody/blood ratio for 20 min. with shaking at room temperature. The blood/antibody mixture was then diluted 1:2 with PBS (Pfizer media prep)/2% FBS (Sigma #F4135) and 30 mL of the mixture was layered onto 15 mL Ficoll-Hypaque (GE Healthcare #17-1440-03) in 50 mL conical tubes. The tubes were then centrifuged at 1200×g for 20 min. at room temperature with no brake. Following centrifugation the T cells formed a buffy coat between the Ficoll-Hypaque and plasma layers. The plasma above the buffy coats was removed to within 5 mm of the buffy coat using a sterile Pasteur pipette. The buffy coats were then collected into fresh sterile 50 mL conical tubes containing 25 mL PBS/2% FBS (2 buffy coats per 50 mL conical). PBS/2% FBS was added to the buffy coat cells such that the final volume in the tube was 50 mL. The tubes were then centrifuged at 200×g for 15 min. at room temperature. The supernatant was discarded and the pellet re-suspended in 10-20 mL of DMEM (Pfizer media prep) Assay media/0.2% BSA (Miltenyi #130-091-376). A differential cell count was performed using a haemacytometer and cells were diluted to 1.1×10^6 T cells/ml in DMEM/0.2% BSA media. Compounds (10 mM-0.3 μM) were diluted with Hanks Balanced Salt Solution (HBSS) (Sigma #H6648) at 1:100 dilution. Immediately following cell isolation and compound dilution, 90 μl/well of T cells (˜1×10^6/ml) in assay medium (DMEM+0.2% BSA) was added to the VWR Deep well V bottom plate (#3906-520-300). 10 μl/well of compound (final concentration range of 10 μM-0.3 nM with 0.1% DMSO) or 0.1% DMSO in HBSS as controls was added to the appropriate wells. Plates were incubated for 1 hour at 37° C., 5% CO2 incubator. 10 μl of 3.3 μg/mL rhIL-2 (R&D Systems #202-IL) was added to the cells (300 ng/ml final assay concentration). Wells containing T cells, medium with 0.1% DMSO and no rhIL-2 were used as background controls. Plates were incubated for 15 min at 37° C. After rhIL-2 stimulation, 800 μL of cold PBS/0.1% BSA was added and the plates were centrifuged at 1400 rpm for 5 min at 4° C. Supernatant was aspirated and 100 μL of ice-cold MSD lysis buffer containing protease and phosphatase inhibitors from Phospho-STAT5a/b Tyr694 assay kit (Meso-Scale Discovery #K150IGD) was added to the cell pellet. Plates were shaken for 30 min. at 4° C. and then frozen overnight. The following day, cell lysates were assayed using the MSD ELISA kit protocol for detection of pSTAT5.
Data were collected and transformed into percent inhibition and calculated using the following formula: […]

JAK1 = JAK1 (Homo sapiens (Human), UniProt P23458); assay: JAK Caliper Enzyme Assay at 1 mM ATP (JAK1); assay type: biochemical; conditions: Caliper assay at 1 mM ATP
Chain of JAK1 (P23458 whole entry): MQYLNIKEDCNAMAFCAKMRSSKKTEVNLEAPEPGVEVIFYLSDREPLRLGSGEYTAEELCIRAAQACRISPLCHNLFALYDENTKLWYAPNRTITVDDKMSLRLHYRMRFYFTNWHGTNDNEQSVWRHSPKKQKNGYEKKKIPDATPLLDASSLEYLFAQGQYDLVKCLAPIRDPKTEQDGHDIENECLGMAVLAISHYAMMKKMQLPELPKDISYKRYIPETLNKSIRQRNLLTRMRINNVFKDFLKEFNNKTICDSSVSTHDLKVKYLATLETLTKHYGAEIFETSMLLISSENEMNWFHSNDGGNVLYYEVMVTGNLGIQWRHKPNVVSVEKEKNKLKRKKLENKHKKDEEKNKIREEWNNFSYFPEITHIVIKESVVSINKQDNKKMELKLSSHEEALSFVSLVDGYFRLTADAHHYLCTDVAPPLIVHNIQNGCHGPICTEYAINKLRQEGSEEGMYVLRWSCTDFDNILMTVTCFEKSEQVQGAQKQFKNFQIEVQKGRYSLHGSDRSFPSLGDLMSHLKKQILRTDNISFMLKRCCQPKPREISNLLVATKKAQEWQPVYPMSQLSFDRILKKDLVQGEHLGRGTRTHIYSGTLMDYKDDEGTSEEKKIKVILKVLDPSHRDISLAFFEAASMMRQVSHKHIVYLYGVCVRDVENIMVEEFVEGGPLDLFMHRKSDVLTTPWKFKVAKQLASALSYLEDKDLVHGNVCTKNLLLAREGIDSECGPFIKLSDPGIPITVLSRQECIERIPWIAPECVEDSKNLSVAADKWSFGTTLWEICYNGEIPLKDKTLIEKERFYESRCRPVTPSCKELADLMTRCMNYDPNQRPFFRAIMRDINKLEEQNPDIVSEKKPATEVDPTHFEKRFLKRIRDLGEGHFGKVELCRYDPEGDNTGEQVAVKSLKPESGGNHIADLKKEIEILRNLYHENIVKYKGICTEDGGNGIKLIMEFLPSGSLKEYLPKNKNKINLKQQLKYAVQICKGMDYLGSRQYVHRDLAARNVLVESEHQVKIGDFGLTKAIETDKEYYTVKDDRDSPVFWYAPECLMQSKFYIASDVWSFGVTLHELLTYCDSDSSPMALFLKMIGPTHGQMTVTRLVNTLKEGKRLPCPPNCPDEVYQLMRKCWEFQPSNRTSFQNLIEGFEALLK

JAK2 = JAK2 (Homo sapiens (Human), UniProt O60674); assay: JAK Caliper Enzyme Assay at 1 mM ATP (JAK2); assay type: biochemical; conditions: Caliper assay at 1 mM ATP
Chain of JAK2 (O60674 whole entry): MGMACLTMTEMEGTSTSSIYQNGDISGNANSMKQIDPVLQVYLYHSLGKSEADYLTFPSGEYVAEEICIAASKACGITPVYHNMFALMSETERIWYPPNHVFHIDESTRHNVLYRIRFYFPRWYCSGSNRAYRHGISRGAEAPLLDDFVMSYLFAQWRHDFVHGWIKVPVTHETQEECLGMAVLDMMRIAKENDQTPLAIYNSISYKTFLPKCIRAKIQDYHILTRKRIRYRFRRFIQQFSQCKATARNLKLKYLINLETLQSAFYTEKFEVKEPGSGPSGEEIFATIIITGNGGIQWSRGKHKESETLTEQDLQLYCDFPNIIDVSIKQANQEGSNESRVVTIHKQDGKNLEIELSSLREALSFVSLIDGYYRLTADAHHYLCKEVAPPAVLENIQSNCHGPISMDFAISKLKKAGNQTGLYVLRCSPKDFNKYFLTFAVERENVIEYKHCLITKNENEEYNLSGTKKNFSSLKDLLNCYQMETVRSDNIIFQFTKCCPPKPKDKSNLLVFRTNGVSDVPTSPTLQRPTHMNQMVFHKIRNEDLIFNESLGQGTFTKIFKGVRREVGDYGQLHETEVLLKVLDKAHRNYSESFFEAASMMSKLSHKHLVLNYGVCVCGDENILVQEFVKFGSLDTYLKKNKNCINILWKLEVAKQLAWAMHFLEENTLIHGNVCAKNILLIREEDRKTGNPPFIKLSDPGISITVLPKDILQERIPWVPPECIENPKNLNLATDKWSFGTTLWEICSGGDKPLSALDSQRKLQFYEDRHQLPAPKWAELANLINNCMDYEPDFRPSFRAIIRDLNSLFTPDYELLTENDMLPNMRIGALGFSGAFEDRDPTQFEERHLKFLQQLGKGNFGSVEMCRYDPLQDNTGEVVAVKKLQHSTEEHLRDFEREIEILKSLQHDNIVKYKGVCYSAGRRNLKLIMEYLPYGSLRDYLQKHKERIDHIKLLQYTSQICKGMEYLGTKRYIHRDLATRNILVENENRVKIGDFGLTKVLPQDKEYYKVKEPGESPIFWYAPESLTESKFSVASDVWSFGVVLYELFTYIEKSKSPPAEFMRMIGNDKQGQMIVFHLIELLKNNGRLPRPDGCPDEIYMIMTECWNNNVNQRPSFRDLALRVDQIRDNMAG

TYK2 = TYK2 (Homo sapiens (Human), UniProt P29597); assay: JAK Caliper Enzyme Assay at 1 mM ATP (TYK2); assay type: biochemical; conditions: Caliper assay at 1 mM ATP
Chain of TYK2 (P29597 whole entry): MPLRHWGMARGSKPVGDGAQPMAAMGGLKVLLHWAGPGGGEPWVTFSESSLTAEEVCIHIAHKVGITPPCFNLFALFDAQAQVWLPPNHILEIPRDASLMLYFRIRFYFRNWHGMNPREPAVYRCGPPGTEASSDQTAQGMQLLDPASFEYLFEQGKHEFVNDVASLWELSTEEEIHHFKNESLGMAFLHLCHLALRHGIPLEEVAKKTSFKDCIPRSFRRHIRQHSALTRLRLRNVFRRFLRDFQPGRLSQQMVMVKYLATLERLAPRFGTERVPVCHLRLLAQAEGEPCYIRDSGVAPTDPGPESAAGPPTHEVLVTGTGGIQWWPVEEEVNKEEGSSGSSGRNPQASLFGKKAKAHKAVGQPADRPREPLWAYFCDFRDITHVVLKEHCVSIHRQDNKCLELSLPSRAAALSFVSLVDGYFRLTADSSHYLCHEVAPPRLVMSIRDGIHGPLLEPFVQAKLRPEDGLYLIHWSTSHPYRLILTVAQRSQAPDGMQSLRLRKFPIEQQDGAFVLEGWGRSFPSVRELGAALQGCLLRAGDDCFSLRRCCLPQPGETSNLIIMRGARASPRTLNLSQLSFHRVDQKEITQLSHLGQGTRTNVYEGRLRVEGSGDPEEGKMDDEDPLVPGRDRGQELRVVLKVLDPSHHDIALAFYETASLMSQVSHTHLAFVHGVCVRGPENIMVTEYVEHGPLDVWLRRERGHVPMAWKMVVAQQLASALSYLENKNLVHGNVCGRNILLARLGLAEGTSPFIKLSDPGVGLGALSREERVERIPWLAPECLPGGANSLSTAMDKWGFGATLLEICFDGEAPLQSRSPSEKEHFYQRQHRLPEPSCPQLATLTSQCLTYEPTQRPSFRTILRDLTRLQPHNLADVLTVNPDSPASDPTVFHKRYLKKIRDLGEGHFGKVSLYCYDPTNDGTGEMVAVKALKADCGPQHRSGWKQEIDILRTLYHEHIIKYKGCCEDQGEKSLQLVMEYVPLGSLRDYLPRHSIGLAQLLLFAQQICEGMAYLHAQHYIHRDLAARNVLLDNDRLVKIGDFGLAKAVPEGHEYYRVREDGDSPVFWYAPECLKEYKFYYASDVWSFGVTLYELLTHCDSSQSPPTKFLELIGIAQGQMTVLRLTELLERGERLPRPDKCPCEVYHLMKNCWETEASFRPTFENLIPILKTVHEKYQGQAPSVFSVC

JAK3 = JAK3 (Homo sapiens (Human), UniProt P52333); assay: JAK Caliper Enzyme Assay at 1 mM ATP (JAK3); assay type: biochemical; conditions: Caliper assay at 1 mM ATP
Chain of JAK3 (P52333 whole entry): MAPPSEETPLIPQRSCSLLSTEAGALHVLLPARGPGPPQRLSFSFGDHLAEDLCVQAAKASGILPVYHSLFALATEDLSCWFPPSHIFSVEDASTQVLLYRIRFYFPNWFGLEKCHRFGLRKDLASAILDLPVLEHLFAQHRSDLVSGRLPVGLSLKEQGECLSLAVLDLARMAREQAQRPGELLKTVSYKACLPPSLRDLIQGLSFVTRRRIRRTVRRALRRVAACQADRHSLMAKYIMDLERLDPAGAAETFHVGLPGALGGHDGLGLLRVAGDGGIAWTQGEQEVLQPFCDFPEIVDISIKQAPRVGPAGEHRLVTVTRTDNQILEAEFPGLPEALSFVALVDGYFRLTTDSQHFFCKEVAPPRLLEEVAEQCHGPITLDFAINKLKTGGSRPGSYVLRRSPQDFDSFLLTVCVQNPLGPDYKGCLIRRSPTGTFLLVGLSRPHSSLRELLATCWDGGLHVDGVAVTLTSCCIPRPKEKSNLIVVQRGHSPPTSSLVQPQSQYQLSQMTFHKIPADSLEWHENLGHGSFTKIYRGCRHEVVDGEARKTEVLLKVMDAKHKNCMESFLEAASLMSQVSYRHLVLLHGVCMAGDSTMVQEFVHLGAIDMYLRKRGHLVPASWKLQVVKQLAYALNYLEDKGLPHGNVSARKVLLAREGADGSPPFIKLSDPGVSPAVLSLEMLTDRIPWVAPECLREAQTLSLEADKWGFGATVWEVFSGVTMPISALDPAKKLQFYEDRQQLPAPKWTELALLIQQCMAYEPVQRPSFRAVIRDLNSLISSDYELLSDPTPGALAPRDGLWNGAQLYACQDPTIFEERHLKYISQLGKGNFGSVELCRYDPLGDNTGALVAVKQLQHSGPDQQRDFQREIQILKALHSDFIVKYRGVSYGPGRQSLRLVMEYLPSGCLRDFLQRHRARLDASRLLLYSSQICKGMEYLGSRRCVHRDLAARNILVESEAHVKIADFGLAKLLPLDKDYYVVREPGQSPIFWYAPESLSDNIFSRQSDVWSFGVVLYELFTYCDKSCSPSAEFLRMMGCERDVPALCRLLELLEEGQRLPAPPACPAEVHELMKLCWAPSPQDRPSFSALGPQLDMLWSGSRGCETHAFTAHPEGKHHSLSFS

Row | Compound | IC50 [1] [nM] | IC50 [2] [nM] | IC50 (JAK1) [nM] | IC50 (JAK2) [nM] | IC50 (TYK2) [nM] | IC50 (JAK3) [nM]
1 | CN(c1ccccc1CNc1nc(-c2cc(F)c(O)cc2CC(F)(F)F)cc2[nH]nc(C(N)=O)c12)S(=O)(=O)c1ccccc1 [Example 26, 6-[5-fluoro-4-hydroxy-2-(2,2,2-trifluoroethyl)phenyl]-4-({2-[methyl(phenylsulfonyl)amino]benzyl}amino)-1H-pyrazolo[4,3-c]pyridine-3-carboxamide] | 124 |  | 19.9 | 91.1 | 218 | 293
2 | CNC(=O)c1n[nH]c2cc(-c3cc(F)c(O)cc3CC(F)(F)F)nc(NCc3ccc(O)cc3N(C)S(C)(=O)=O)c12 [Example 33, 6-[5-fluoro-4-hydroxy-2-(2,2,2-trifluoroethyl)phenyl]-4-({4-hydroxy-2-[methyl(methylsulfonyl)amino]benzyl}amino)-N-methyl-1H-pyrazolo[4,3-c]pyridine-3-carboxamide] | 490 |  | 5.7 | 25 | 282 | 75.2
3 | CCc1cc(O)c(F)cc1-c1cc2[nH]ncc2c(N(C)Cc2ccccc2N(C)S(C)(=O)=O)n1 [Example 146, N-[2-({[6-(2-Ethyl-5-fluoro-4-hydroxyphenyl)-1H-pyrazolo[4,3-c]pyridin-4-yl](methyl)amino}methyl)phenyl]-N-methylmethanesulfonamide hydrochloride] | 7.6 | 62.3 |  |  |  | 
4 | CCc1cc(O)c(F)cc1-c1cc2[nH]nc(C(=O)NC)c2c(NCCc2ccc(NS(=O)(=O)c3ccccc3)cc2)n1 [Example 23, 6-(2-ethyl-5-fluoro-4-hydroxyphenyl)-N-methyl-4-[(2-{4-[(phenylsulfonyl)amino]phenyl}ethyl)amino]-1H-pyrazolo[4,3-c]pyridine-3-carboxamide] | 51.4 |  | 5.8 | 25.7 | 83.2 | 111
5 | CCc1cc(O)c(F)cc1-c1cc2[nH]ncc2c(N(C)Cc2ccccc2N(CC)S(C)(=O)=O)n1 [Example 145, N-Ethyl-N-[2-({[6-(2-ethyl-5-fluoro-4-hydroxyphenyl)-1H-pyrazolo[4,3-c]pyridin-4-yl](methyl)amino}methyl)phenyl]methanesulfonamide hydrochloride] | 15.7 | 157 |  |  |  | 
6 | CNC(=O)c1n[nH]c2cc(-c3cc(F)c(O)cc3CC(F)(F)F)nc(NCc3cc(O)ccc3N(C)S(=O)(=O)c3cccnc3)c12 [Example 54, 6-[5-fluoro-4-hydroxy-2-(2,2,2-trifluoroethyl)phenyl]-4-({5-hydroxy-2-[methyl(pyridin-3-ylsulfonyl)amino]benzyl}amino)-N-methyl-1H-pyrazolo[4,3-c]pyridine-3-carboxamide] | 135 |  | 6.1 | 32.9 | 25.9 | 123
7 | CNC(=O)c1n[nH]c2cc(-c3cc(F)c(O)cc3CC(F)(F)F)nc(NCc3ccccc3N(CCO)S(C)(=O)=O)c12 [Example 24, 6-[5-fluoro-4-hydroxy-2-(2,2,2-trifluoroethyl)phenyl]-4-({2-[(2-hydroxyethyl)(methylsulfonyl)amino]benzyl}amino)-N-methyl-1H-pyrazolo[4,3-c]pyridine-3-carboxamide] | 226 |  | 2.9 | 16.5 | 29.9 | 69.6
8 | CCc1cc(O)c(F)cc1-c1cc2[nH]nc(C(=O)NC)c2c(NCc2cc(C)ccc2N(C)S(C)(=O)=O)n1 [Example 21, 6-(2-ethyl-5-fluoro-4-hydroxyphenyl)-N-methyl-4-({5-methyl-2-[methyl(methylsulfonyl)amino]benzyl}amino)-1H-pyrazolo[4,3-c]pyridine-3-carboxamide] | 35.6 |  | 2.7 | 13.2 | 11.4 | 67.9
9 | CNC(=O)c1n[nH]c2cc(-c3cc(F)c(O)cc3CC(F)(F)F)nc(NCc3cc(O)ccc3N(C)S(=O)(=O)c3ccccc3)c12 [Example 35, 6-[5-fluoro-4-hydroxy-2-(2,2,2-trifluoroethyl)phenyl]-4-({5-hydroxy-2-[methyl(phenylsulfonyl)amino]benzyl}amino)-N-methyl-1H-pyrazolo[4,3-c]pyridine-3-carboxamide] | 437 |  | 39.9 | 249 | 256 | 817

The next lines start with results.

Row | IC50 [1] [nM] | IC50 [2] [nM] | Compound | IC50 (JAK1) [nM] | IC50 (JAK2) [nM] | IC50 (TYK2) [nM] | IC50 (JAK3) [nM]
10 | 11.9 | 20.2 | CCc1cc(O)c(F)cc1-c1cc2[nH]nc(C(=O)NC)c2c(NCc2ccccc2N(C)S(C)(=O)=O)n1 [Example 19, 6-(2-ethyl-5-fluoro-4-hydroxyphenyl)-N-methyl-4-({2-[methyl(methylsulfonyl)amino]benzyl}amino)-1H-pyrazolo[4,3-c]pyridine-3-carboxamide] |  |  |  | 
11 | 74 | 48.2 | CCc1cc(O)c(F)cc1-c1cc2[nH]nc(C(=O)NC)c2c(NCc2cc(O)ccc2N(C)S(C)(=O)=O)n1 [Example 31, 6-(2-Ethyl-5-fluoro-4-hydroxyphenyl)-4-({5-hydroxy-2-[methyl (methylsulfonyl)amino]benzyl}amino)-N-methyl-1H-pyrazolo[4,3-c]pyridine-3-carboxamide] |  |  |  | 
12 | 567 | 91.3 | CCc1cc(O)c(F)cc1-c1cc2[nH]nc(-c3nnc(C)[nH]3)c2c(NCc2ccccc2N(C)S(C)(=O)=O)n1 [Example 165, N-[2-({[6-(2-Ethyl-5-fluoro-4-hydroxyphenyl)-3-(5-methyl-4H-1,2,4-triazol-3-yl)-1H-pyrazolo[4,3-c]pyridin-4-yl]amino}methyl)phenyl]-N-methylmethanesulfonamide] |  |  |  | 
13 |  | 259 | CCc1cc(O)c(F)cc1-c1cc2[nH]ncc2c(NCc2c(F)cccc2N(C)S(C)(=O)=O)n1 [Example 134, N-[2-({[6-(2-ethyl-5-fluoro-4-hydroxyphenyl)-1H-pyrazolo[4,3-c]pyridin-4-yl]amino}methyl)-3-fluorophenyl]-N-methylmethanesulfonamide hydrochloride] |  |  |  | 
14 | 398 | 343 | CN(c1ccc(O)cc1CNc1nc(-c2cc(F)c(O)cc2CC(F)(F)F)cc2[nH]nc(C(N)=O)c12)S(C)(=O)=O [Example 92, 6-[5-Fluoro-4-hydroxy-2-(2,2,2-trifluoroethyl)phenyl]-4-({5-hydroxy-2-[methyl(methylsulfonyl)amino]benzyl}amino)-1H-pyrazolo[4,3-c]pyridine-3-carboxamide] |  |  |  | 
15 | 724 | 324 | CN(c1ccccc1CNc1nc(-c2cc(F)c(O)cc2CC(F)(F)F)nc2[nH]nc(C(N)=O)c12)S(C)(=O)=O [Example 98, 6-(5-Fluoro-4-hydroxy-2-(2,2,2-trifluoroethyl)phenyl)-4-((2-(N-methylmethylsulfonamido)benzyl)amino)-1H-pyrazolo[3,4-d]pyrimidine-3-carboxamide] |  |  |  | 
16 | 697 | 591 | Cc1ccc(-c2nnc(-c3n[nH]c4cc(-c5cc(F)c(O)cc5CC(F)(F)F)nc(NCc5ccccc5N(C)S(C)(=O)=O)c34)[nH]2)cn1 [Example 166, N-{2-[({6-[5-Fluoro-4-hydroxy-2-(2,2,2-trifluoroethyl)phenyl]-3-[5-(6-methylpyridin-3-yl)-4H-1,2,4-triazol-3-yl]-1H-pyrazolo[4,3-c]pyridin-4-yl}amino)methyl]phenyl}-N-methylmethanesulfonamide] |  |  |  | 

Reference: patent publication US10022376B2 (Pfizer Inc., priority 2014, dated 2018)
